Reference: article PMC8278147, “Synthesis of New 1H-1,2,3-Triazole Analogs in Aqueous Medium via “Click” Chemistry: A Novel Class of Potential Carbonic Anhydrase-II Inhibitors” (Frontiers in Chemistry, 2021)

Biological target: T1, bovine carbonic anhydrase-II enzyme (Bos taurus, UniProt P00921)
T1 construct: In vitro experiment of bovine erythrocyte CA-II was conducted in HEPES-Tris buffer; from tissue; host or cells: bovine erythrocytes
Assay: In vitro carbonic anhydrase-II inhibition assay (p-nitrophenylacetate substrate)
Type: biochemical
Conditions: bovine erythrocyte CA-II, HEPES-Tris buffer pH 7.4, 25°C, substrate p-nitrophenylacetate 0.7 mM, triplicate
Protocol: In vitro experiment of bovine erythrocyte CA-II was conducted in HEPES-Tris buffer (20 mM) to maintain the pH 7.4. The purified was dissolved in HEPES-Tris buffer (0.1 mg/ml), and the reaction mixture was comprised of 140 μL of the HEPES-Tris buffer, 20 μL of the enzyme, and 20 μL of test compound (prepared in DMSO) and was incubated for 15 min at 25°C. After completion of the preincubation, the reaction was started by adding instantly the substrate p-nitrophenylacetate (P-NPA) at a concentration of 0.7 mM and prepared in methanol. To initiate the reaction, the 96-well plate was placed in a microplate reader and continuous product formation was monitored with a one-minute time interval for 30 min at 400 nm. The assay temperature was strictly controlled and kept at 25°C. All the reaction was conducted in triplicate, and the results are presented as mean.

T1 sequence (P00921 whole entry): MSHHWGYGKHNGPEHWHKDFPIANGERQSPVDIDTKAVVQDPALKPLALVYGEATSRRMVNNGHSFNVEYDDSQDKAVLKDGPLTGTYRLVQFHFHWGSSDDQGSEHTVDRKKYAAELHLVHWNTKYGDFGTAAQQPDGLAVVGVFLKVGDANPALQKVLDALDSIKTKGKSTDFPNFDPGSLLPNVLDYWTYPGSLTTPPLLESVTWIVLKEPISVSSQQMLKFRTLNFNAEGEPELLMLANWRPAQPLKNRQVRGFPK

COc1cc(Br)ccc1O[C@H](C)Cn1cc(-c2ccc(N)cc2)nn1 [Compound 7b, (R)-4-(1-(2-(4-Bromo-2-methoxyphenoxy)propyl)-1H-1,2,3-triazol-4-yl)aniline]
IC50: 13.8 ± 0.63 µM
